According to patent US10653780B2, “Amino lipids and methods for the delivery of nucleic acids” (ARBUTUS BIOPHARMA CORPORATION, priority 2008, dated 2020):
“And” between values parts separate entries of the source, which are not always exact repeats. Equal entries are not always repeated. Where two headings read alike, the source gives them in different places.

Legend:
Factor VII (FVII) = conditions: for FVII ED50: Table 11
Excerpt: It is well established that in vivo RNAi silencing of specific hepatocyte proteins can be achieved following intravenous (i.v.) administration of siRNA's encapsulated in, or associated with, select nanoparticles designed for intracellular delivery. […] In this Example, rational design in combination with in vivo screening were applied to systematically modify the structure of DLinDMA and identify molecular features that enhance or reduce cationic lipid potency. More than 30 lipids were synthesized and incorporated into nucleic acid-lipid particles, i.e., lipid nanoparticles (LN) encapsulating an siRNA (LN-siRNA) targeting Factor VII (FVII), a blood clotting component synthesized and secreted by hepatocytes that is readily measured in serum. LN-siRNA systems were prepared using the same process, lipid molar ratios and particle size to minimize effects on activity resulting from formulation characteristics other than the cationic lipid. Each formulation was administered as a single bolus injection over a range of doses enabling an estimate of the siRNA dose required to reduce FVII serum protein concentrations by 50% after 24 h (ED50).
FVII activity was evaluated in FVII siRNA-treated animals at 24 hours after intravenous (bolus) injection in C57BL/6 mice or 48 hours after intravenous (bolus) injection in SD rats. Six to 8 week old, female C57Bl/6 mice were obtained from Charles River Laboratories and acclimated for one week prior to use in studies. Animals were held in a pathogen-free environment and all procedures involving animals were performed in accordance with the guidelines established by the Canadian Council on Animal Care.
LN-siRNA systems containing Factor VII siRNA were diluted to the appropriate concentrations in sterile phosphate buffered saline immediately prior to use, and the formulations were administered intravenously via the lateral tail vein in a total volume of 10 ml/kg. After 24 h, animals were anaesthetised with Ketamine/Xylazine and blood was collected by cardiac puncture and processed to serum (Microtainer Serum Separator Tubes; Becton Dickinson, Franklin Lakes, N.J., USA). Serum was tested immediately or stored at −70° C. for later analysis for serum Factor VII levels.
FVII was measured using a commercially available kit (Biophen FVII Kit™; Aniara Corp., Mason, Ohio), following the manufacturer's instructions at a microplate scale. FVII reduction was determined against untreated control animals, and the results were expressed as % Residual FVII. Five dose levels (0.1, 0.3, 0.5, 1.0, and 3.0 mg/kg) were typically used.
Serum Factor VII levels were determined using the colorimetric Biophen VII assay kit (Anaira, USA). Briefly, serially diluted pooled control serum (200%-3.125%) and appropriately diluted plasma samples from treated animals were analyzed using the Biophen VII kit according to manufacturer's instructions in 96-well, flat bottom, non-binding polystyrene assay plates (Corning, Corning, N.Y.) and absorbance at 405 nm was measured. A calibration curve was generated using the serial diluted control serum and used to determine levels of Factor VII in serum from treated animals.
Initial studies were performed in eight to 10 week old, female C57BL/6 mice in two stages. In the first stage, the activity associated with the benchmark lipid DLinDMA was compared to the activity associated with modified forms of DLinDMA.

[1] = In situ determination of apparent pKa using TNS fluorescence titration
Excerpt: In situ pKa measurements were made using the pH sensitive fluorescent probe TNS, using a modification of the approach previously published in Bailey, A. L. and Cullis, P. R., Biochemistry 33:12573-12580 (1994).
Titrations of surface charge as a function of pH can then be used to determine the apparent pKa (hereafter referred to as pKa) of constituent lipids (Cullis, P. R., et al., Chem Phys Lipids 40:127-144 (1986)).

[2] = Bilayer-to-hexagonal HII transition temperature (TBH) in equimolar mixtures with DSPS; type: physicochemical; conditions: equimolar with DSPS, pH 4.8; 31P NMR and DSC
Excerpt: Both techniques gave similar results.

[3] = Tolerability of DLin-K-DMA-containing LN-siRNA systems in mice at extreme doses
Description: The tolerability of empty DLin-K-C2-DMA lipid particles (DLin-K-C2-DMA/DSPC/Chol/PEG-C-DOMG (40/10/40/10)) was evaluated by monitoring weight change, cageside observations, clinical chemistry and, in some instances, hematology in femal Sprague Dawley rats and female C57BL/6 mice. Animal weights were recorded prior to treatment and at 24 hours after intravenous treatment with various dosages. Data was recorded as % Change in Body Weight. In addition to body weight measurements, clinical chemistry panel, including liver function markers, was obtained at each dose level at 24 hours post-injection using an aliquot of the serum collected for FVII analysis. […] In some instances, additional animals were included in the treatment group to allow collection of whole blood for hematology analysis.
The toxicity criteria measured were % change in body weight and serum levels of the liver enzyme markers, ALT and AST.

[4] = Pharmacokinetic and liver analysis of Cy-3 labeled siRNA in LN-siRNA systems; type: in vivo
Excerpt: A fluorescently labeled siRNA (Cy-3 labeled luciferase siRNA, Alnylam Pharmaceuticals) was used to measure the siRNA content in plasma and liver after iv administration of LN-siRNA systems. The measurements were done by first extracting the Cy3-siRNA from the protein-containing biological matrix and then analyzing the amount of Cy-3 label in the extract by fluorescence. Two extraction methods were used, a chloroform/methanol mixture for the plasma samples and a commercial phenol/chloroform mixture (Trizol® reagent) with the tissue samples.
For plasma, blood was collected in EDTA-containing Vacutainer tubes and centrifuged at 1000×g for 10 min at 4-8° C. to isolate the plasma. The plasma was transferred to an eppendorf tube and either assayed immediately or stored in a −30° C. freezer. An aliquot of the plasma (100 μL maximum) was diluted to 500 μL with PBS (145 mM NaCl, 10 mM phosphate, pH 7.5), methanol (1.05 mL and chloroform (0.5 mL) was added, and the sample vortexed to obtain a clear, single phase solution. Water (0.5 mL) and chloroform (0.5 mL) was then added and the resulting emulsion sustained by mixing periodically for a minimum of 3 minutes. The mixture was centrifuged at 3000 rpm for 20 minutes and the top aqueous phase containing the Cy-3-label transferred to a new test tube. The fluorescence of the solution was measured using an SLM Fluorimeter at an excitation wavelength of 550 nm (2 nm bandwidth) and emission wavelength of 600 nm (16 nm bandwidth). A standard curve was generated by spiking aliquots of plasma from untreated animals with the Cy-3-siRNA containing formulation (0 to 15 μg/mL), and the sample processed as indicated above.
For liver, sections (400-500 mg) of tissue from saline-perfused animals was accurately weighed and homogenized in 1 mL of Trizol using Fastprep tubes. An aliquot of the homogenate (typically equivalent to 50 mg of tissue) was transferred to an eppendorf tube and additional Trizol added to 1 mL final. Chloroform (0.2 mL) was added, and the solution was mixed and incubated for 2-3 min before being centrifuged for 15 min at 12,000×g. An aliquot (0.5 mL) of the top Cy-3-containing aqueous phase was diluted with 0.5 mL of PBS and the fluorescence of the sample measured as described above.
The correlation between levels of siRNA delivered to the liver and FVII reduction was determined by encapsulating Cy-3 labeled siRNA in the selection of LN-siRNA systems covering a spectrum of in vivo activities shown in Table 8. Cy-3 fluorescence was measured in plasma and liver tissue 0.5 and 3.0 h post injection.

[5] = Table 6, siRNA dose reducing serum FVII protein by 50% at 24 h, PFV LN-siRNA 40/10/40/10
[6] = siRNA dose reducing serum FVII protein by 50% at 24 h, PFV LN-siRNA 40/10/40/10
[7] = Table 7, siRNA dose reducing serum FVII protein by 50% at 24 h, PFV LN-siRNA 40/10/40/10
[8] = Table 4, siRNA dose reducing serum FVII protein by 50% at 24 h, PFV LN-siRNA 40/10/40/10
[9] = Table 8, FVII ED50 of the LN-siRNA system
[10] = siRNA 0-10 mg/kg, total lipid 0-164 mg/kg
[11] = siRNA 46 mg/kg, total lipid 750 mg/kg
[12] = siRNA 61 mg/kg, total lipid 1000 mg/kg
[13] = siRNA 76 mg/kg, total lipid 1250 mg/kg
[14] = siRNA 92 mg/kg, total lipid 1500 mg/kg

Compound: CCCCC/C=C\C/C=C\CCCCCCCCC1(CCCCCCCC/C=C\C/C=C\CCCCC)OCC(CN2CCN(C)CC2)O1 (centres unmarked) [DLin-K-MPZ, 2,2-Dilinoleyl-4-N-methylpepiazino-[1,3]-dioxolane]
- ED50 (Factor VII (FVII); [5]): ~1.5 mg/kg
- FVII ED50 (Factor VII (FVII)): ~1.5 mg/kg
- fold less active than DLin-K-DMA (Factor VII (FVII); mouse FVII model): approximately 5 fold
- ED50 (Factor VII (FVII); [6]): ~1.5 mg/kg
- pKa [1]: 6.2

Compound: CCCCC/C=C\C/C=C\CCCCCCCCC1(CCCCCCCC/C=C\C/C=C\CCCCC)OCC(CN(C)C)CO1 [DLin-K6-DMA, 2,2-dilinoleyl-5-dimethylaminomethyl-[1,3]-dioxane]
- ED50 (Factor VII (FVII); [7]): ~0.3 mg/kg
- FVII ED50 (Factor VII (FVII)): ~0.3 mg/kg
- pKa [1]: 6.2

Compound: CCCCC/C=C\C/C=C\CCCCCCCCC1(CCCCCCCC/C=C\C/C=C\CCCCC)OCC(CN(C)C)O1 (racemic) [DLin-K-DMA, 2,2-Dilinoleyl-4-dimethylaminomethyl-[1,3]-dioxolane]
- ED50 (Factor VII (FVII); [8]): ~0.4 mg/kg
- ED50 (Factor VII (FVII); [5]): ~0.4 mg/kg
- ED50 (Factor VII (FVII); [7]): ~1 mg/kg
- ED50 (Factor VII (FVII); [9]): 0.3 mg/kg
- FVII ED50 (Factor VII (FVII)): ~0.4 mg/kg
- FVII ED50 (Factor VII (FVII); listed as DLin-K-DMA (racemic mixture)): ~0.3 mg/kg
- fold more potent than the DLinDMA benchmark (Factor VII (FVII); reducing serum FVII protein, mouse, head-to-head): ~2.5 fold
- ED50 (Factor VII (FVII); [6]): ~0.4 mg/kg
- ED50 (Factor VII (FVII); siRNA dose reducing serum FVII protein by 50% at 24 h, PFV LN-siRNA 40/10/40/10, listed as DLin-K-DMA racemic mixture): ~0.3 mg/kg
- pKa [1]: 5.6
- HII transition temperature [2]: 19 °C
- siRNA dose up to which no changes in blood chemistry or body weight were observed ([3]; compared to saline controls, mice): 10 mg/kg
- body weight lost ([3]; maximum dose 92 mg siRNA/kg, 1500 mg total lipid/kg): 6%
- siRNA dose exceeded before severe (>10-fold) ALT/AST increases are observed ([3]; mice): exceeded 61 mg/kg
- % Change Body Weight [3, 10]: 0%
- ALT [3, 10]: 45 IU/L
- AST [3, 10]: 90 IU/L
- % Change Body Weight [3, 11]: −5.0%
- ALT [3, 11]: 174 IU/L
- AST [3, 11]: 340 IU/L
- increases in serum ALT and AST [3, 11]: < 10 fold normal
- % Change Body Weight [3, 12]: −4.5%
- ALT [3, 12]: 448 IU/L
- AST [3, 12]: 816 IU/L
- % Change Body Weight [3, 13]: −5.5%
- ALT [3, 13]: 1771 IU/L
- AST [3, 13]: 4723 IU/L
- % Change Body Weight [3, 14]: −6.0%
- ALT [3, 14]: 4723 IU/L
- AST [3, 14]: 2094 IU/L
- fold greater than the ED50 dose ([3]; siRNA dose of 10 mg/kg without changes): > 30 fold
- fold more than the ED50 ([3]; siRNA dose of 46 mg/kg, first significant toxicity signs): 150 fold

Compound: CCCCC/C=C\C/C=C\CCCCCCCCOCC(CN(C)C)OCCCCCCCC/C=C\C/C=C\CCCCC (centres unmarked) [DLinDMA, 1,2-Dilinoleyloxy-3-dimethylaminopropane, reference compound]
- ED50 (Factor VII (FVII); Table 3, siRNA dose reducing serum FVII protein by 50% at 24 h, single i.v. bolus, PFV LN-siRNA 40/10/40/10): ~1 mg/kg
- ED50 (Factor VII (FVII); [8]): ~1 mg/kg
- ED50 (Factor VII (FVII); Table 5, siRNA dose reducing serum FVII protein by 50% at 24 h, PFV LN-siRNA 40/10/40/10): ~1 mg/kg
- ED50 (Factor VII (FVII); [9]): 1.0 mg/kg
- FVII ED50 (Factor VII (FVII)): ~1.0 mg/kg
- ED50 (Factor VII (FVII); [6]): ~1.0 mg/kg and 1 mg/kg
- pKa [1]: 6.4
- molecules charged ([1]; at pH 7.4): 5-10%
- pKa ([1]; nucleic acid-lipid particles containing the cationic lipid): 6.4
- HII transition temperature [2]: 27 °C

Compound: CCCCC/C=C\C/C=C\CCCCCCCCC1(CCCCCCCC/C=C\C/C=C\CCCCC)OCC(CCCCN(C)C)O1 (centres unmarked) [DLin-K-C4-DMA, 2,2-Dilinoleyl-4-(4-dimethylaminobutyl)-[1,3]-dioxolane]
- ED50 (Factor VII (FVII); [5]): >3 mg/kg
- FVII ED50 (Factor VII (FVII)): >3.0 mg/kg
- fold less active in vivo than DLin-K-C3-DMA (Factor VII (FVII); mouse, in vivo): more than 5 fold
- ED50 (Factor VII (FVII); [6]): > 3 mg/kg
- pKa [1]: 6.8
- HII transition temperature [2]: 18 °C

Compound: 1,2-Dilinoleoyl-3-dimethylaminopropane [DLinDAP]
- ED50 (Factor VII (FVII); [8]): 40 to 50 mg/kg
- ED50 (Factor VII (FVII); [9]): 12 to 25 mg/kg
- FVII ED50 (Factor VII (FVII)): >25 mg/kg
- ED50 (Factor VII (FVII); [6]): 12 to 25 mg/kg
- Apparent pKa ([1]; in situ in preformed vesicles, TNS fluorescence titration, Table 11): 5.7
- Liver Cy-3 siRNA ([4]; 0.5 h post injection): 20.5 % injected dose
- Plasma Cy-3 siRNA ([4]; 0.5 h post injection): 46.6 % injected dose
- Liver Cy-3 siRNA ([4]; 3.0 h post injection): 16.5 % injected dose
- Plasma Cy-3 siRNA ([4]; 3.0 h post injection): 3.3 % injected dose
- HII transition temperature [2]: 26 °C

Compound: CCCCC/C=C\C/C=C\CCCCCCCCC1(CCCCCCCC/C=C\C/C=C\CCCCC)OCC(CCCN(C)C)O1 (centres unmarked) [DLin-K-C3-DMA, 2,2-Dilinoleyl-4-(3-dimethylaminopropyl)-[1,3]-dioxolane]
- ED50 (Factor VII (FVII); [5]): ~0.6 mg/kg
- FVII ED50 (Factor VII (FVII)): ~0.6 mg/kg
- ED50 (Factor VII (FVII); [6]): ~0.6 mg/kg
- pKa [1]: 6.8
- HII transition temperature [2]: 18 °C
